{"source": "paper PMC6071666", "about": "(Bioorganic & medicinal chemistry, 2018)", "biological_target": "LSD1 (Homo sapiens, UniProt O60341)", "experiment": "in vitro demethylation of H3K4me2 peptide by GST-LSD1, mass spectrometry readout", "format": "biochemical"}
{"compound": "CC(C)(C)OC(=O)NC1CC1c1ccc(OC(=O)OC(C)(C)C)cc1", "note": "(stereo not shown) [compound 3, tert-butyl 2-(4-(tert-butoxycarbonyloxy)phenyl)cyclopropylcarbamate]", "values": [{"measurement": "IC50", "value": "~21.2", "unit": "µM"}]}
